In patent US9980967B1, “Method for overcoming drug resistance of EGFR mutation and cancerous stemness of human non-small cell lung carcinoma” (NATIONAL CHIAO TUNG UNIVERSITY, priority 2017, dated 2018):

What was measured:
H1975 xenograft tumors = assay: Xenografted human NSCLC (H1975) tumors in nude mice; type: in vivo; conditions: 30 mg/kg once per four days, during the treatment period
Description: The results were obtained from twelve mice and the bar represents the mean±S.E.M.**p<0.01, indicating significant difference between control and SP101 treatment group mice. ###p<0.001 indicates significant differences between SP101 and Gefitinib-treated mice.
The tumor weight was means±*p<0.05 indicating significant differences between control and SP101 treatment group mice. #p<0.05 indicates significant differences between SP101 and Gefitinib-treated mice.
NSCLC tumors in nude mice were established. Seven-week-old nude mice were subcutaneously injected with 3×10^6 H1975 cells. Please refer to FIGS. 7 and 8. After 7 to 10 days inoculation, the nude mice were treated with vehicle or 30 mg/kg SP101 or 30 mg/kg Gefitinib once per four days and tumor sizes in the nude mice were measured every four days. The nude mice were sacrificed after treatment for 16 days; the tumors were harvested to measure tumor volume/weight and further analyze tumor tissues. […] Please refer to FIG. 9.

A549-ON cells = assay: Annexin V/PI apoptosis flow cytometry in A549-ON cells; type: cell-based, human; conditions: 30 μM, early and late apoptosis, flow cytometry
Method: At the end of treatment, apoptosis was measured by Annexin V-PI staining using flow cytometry analysis. The population of Annexin V+/PI− cells represents cells undergoing early apoptosis (low right), whereas the fraction of Annexin V+/PI+ cell are those undergoing late apoptosis (upper right). The representative flow data were shown from one of three separate experiments with similar findings.
The bar represents the mean±S.E.M. ***p<0.001 indicates significant difference between untreated and SP101 or Gefitinib treated samples.
We compared the apoptosis levels of SP101 and Gefitinib in cancer stem-like A549-ON cells by Annexin V and PI staining. Please refer to FIG. 19. […] Please refer to FIG. 20. The average of total apoptosis follows SP101 and Gefitinib in the A549-ON cells around 69.29% and 7.59%, respectively.

Structure (SMILES): COc1cc2ncnc(Nc3ccc(F)c(Cl)c3)c2cc1OCCCN1CCOCC1 [Gefitinib, reference compound]
- body weight of the nude mice (H1975 xenograft tumors): did not alter
- average of total apoptosis (A549-ON cells): ~7.59%
